The nature of the experiment: Binding affinity to BIV transactivating response element RNA. The arrangement: species or system Bovine immunodeficiency virus.

Compound `C[C@@H](O)[C@@H]1NC(=O)[C@H](CO)NC(=O)[C@H](Cc2c[nH]c3ccccc23)NC(=O)[C@H](CCC(N)=O)NC(=O)[C@H](Cc2cnc[nH]2)NC(=O)[C@H]([C@@H](C)O)NC(=O)[C@@H](N)CSSC[C@H](C(N)=O)NC(=O)[C@H](CCCCN)NC1=O` showed a Kd of 9.1 µM.
In turn, `C[C@@H](O)[C@@H]1NC(=O)CNC(=O)[C@@H](N)CSSC[C@H](C(N)=O)NC(=O)[C@H](CCC(N)=O)NC(=O)[C@@H]2CCCN2C(=O)[C@H](Cc2c[nH]cn2)NC(=O)[C@H](Cc2cnc[nH]2)NC(=O)[C@H](Cc2c[nH]c3ccccc23)NC1=O` came in with a Kd of 7.9 µM.

In general, Kd refers to the equilibrium constant for the complex coming apart.

Values taken from ChEMBL document CHEMBL1141615, “Targeting RNA with cysteine-constrained peptides” (Bioorg Med Chem Lett, 2008).
